We go through 2 molecules from paper PMC8245654, “Extended JAZ degron sequence for plant hormone binding in jasmonate co-receptor of tomato SlCOI1-SlJAZ” (Scientific Reports, 2021).

Like-named read-outs stand apart in the source and are kept apart here.

One assay concerns the target T1, SlCOI1-SlJAZ1 (Solanum lycopersicum, UniProt A0A3Q7H988+Q6TDU2).
T1 sequence (Q6TDU2 1-603): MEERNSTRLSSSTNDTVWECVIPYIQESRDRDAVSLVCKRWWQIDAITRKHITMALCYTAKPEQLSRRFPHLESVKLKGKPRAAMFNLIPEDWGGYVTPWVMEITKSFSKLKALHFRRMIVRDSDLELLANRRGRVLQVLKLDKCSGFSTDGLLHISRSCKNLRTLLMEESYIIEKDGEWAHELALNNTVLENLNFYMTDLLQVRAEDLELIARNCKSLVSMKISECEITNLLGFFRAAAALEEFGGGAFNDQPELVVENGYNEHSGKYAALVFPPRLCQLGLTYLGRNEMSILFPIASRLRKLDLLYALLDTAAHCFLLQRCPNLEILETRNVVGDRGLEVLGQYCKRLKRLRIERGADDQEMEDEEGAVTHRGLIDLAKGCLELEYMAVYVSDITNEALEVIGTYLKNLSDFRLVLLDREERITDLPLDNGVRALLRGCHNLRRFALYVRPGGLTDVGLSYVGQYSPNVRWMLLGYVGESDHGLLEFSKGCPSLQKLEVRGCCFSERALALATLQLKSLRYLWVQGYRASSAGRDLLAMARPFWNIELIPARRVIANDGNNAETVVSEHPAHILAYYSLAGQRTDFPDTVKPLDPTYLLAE
T1 sequence (A0A3Q7H988 159-185): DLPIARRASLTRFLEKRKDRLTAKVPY
T1 sequence (Q39255 1-160 partner): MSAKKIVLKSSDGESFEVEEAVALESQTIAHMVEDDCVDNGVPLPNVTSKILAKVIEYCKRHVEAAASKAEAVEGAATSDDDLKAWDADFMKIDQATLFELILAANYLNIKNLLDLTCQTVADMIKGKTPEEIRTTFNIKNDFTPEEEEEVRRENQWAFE
Kind of assay: AlphaScreen assay, GST-SlCOI1 and Fl-SlJAZP1. Conditions: calculated from AlphaScreen, 5 nM SlCOI1, 10 nM Fl-SlJAZP1. Format: binding. As to the method: (§1) AlphaScreen experiments were performed at 25 °C in the incubation buffer. 15 μL of the reaction mixture containing the incubation buffer, 5 nM SlCOI1, 10 nM Fl-SlJAZPs and various concentrations of COR or JA-Ile was added to a 1/2 Area AlphaPlate-96 (PerkinElmer), and then incubated for 1 h at 4 °C. Then, 10 μL of a detection mixture containing incubation buffer, 0.1 μL of FITC-coated donor beads, 0.1 μL of GST-coated acceptor beads was added to each well. Finally, the mixture was incubated for 12 h and the luminescence signals were detected using the Envision 2105 Multimode Plate Reader (PerkinElmer). The experiment was repeated three times, and the data are presented as average values with standard deviation. To clarify the difference in the affinity of the ligands with each COI1/JAZ co-receptor, the results of the AlphaScreen assay are shown with the normalized signal intensity change (Figs. 3, 4, and Supplementary Fig. S9) along with the raw signal intensity (Supplementary Figs. S8, S10, and S13)[40].

The next assay addresses T2, SlCOI1-SlJAZ5 (Solanum lycopersicum, UniProt A0A3Q7FUH8+Q6TDU2).
T2 sequence (Q6TDU2 1-603): T1 sequence (Q6TDU2 1-603)
T2 sequence (A0A3Q7FUH8 327-353): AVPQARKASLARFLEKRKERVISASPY
T2 sequence (Q39255 1-160 partner): T1 sequence (Q39255 1-160 partner)
As to the kind of experiment: AlphaScreen assay, GST-SlCOI1 and Fl-SlJAZP5. Format: binding. Conditions: calculated from AlphaScreen, 5 nM SlCOI1, 10 nM Fl-SlJAZP5. As to the method:
as §1

The target of a further assay is SlCOI1-SlJAZ6. As to the kind of experiment: AlphaScreen assay, GST-SlCOI1 and Fl-SlJAZP6. Format: binding, Solanum lycopersicum. Conditions: calculated from AlphaScreen; 5 nM SlCOI1, 10 nM Fl-SlJAZP6. The procedure: as §1
A further assay addresses T3, SlCOI1-SlJAZ7 (Solanum lycopersicum, UniProt Q6TDU2+Q9M723).
T3 sequence (Q6TDU2 1-603): T1 sequence (Q6TDU2 1-603)
T3 sequence (Q9M723 174-200): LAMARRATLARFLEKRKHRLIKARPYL
T3 sequence (Q39255 1-160 partner): T1 sequence (Q39255 1-160 partner)
Kind of assay: AlphaScreen assay, GST-SlCOI1 and Fl-SlJAZP7. Type of assay: binding. The procedure:
as §1
On the technique in general: Alpha assays give light when donor and acceptor beads are brought close together.

Another assay has as its target SlCOI1-SlJAZ8. Kind of assay: AlphaScreen assay, GST-SlCOI1 and Fl-SlJAZP8. The note with it: calculated from AlphaScreen; 5 nM SlCOI1, 10 nM Fl-SlJAZP8. Type of assay: binding, Solanum lycopersicum. The procedure: as §1
The target of the next assay is SlCOI1-SlJAZ9. Kind of assay: AlphaScreen assay, GST-SlCOI1 and Fl-SlJAZP9. The note with it: calculated from AlphaScreen; 5 nM SlCOI1, 10 nM Fl-SlJAZP9. Type of assay: binding, Solanum lycopersicum. As to the method:
as §1

The target of the next assay is SlCOI1-SlJAZ10. Kind of assay: AlphaScreen assay, GST-SlCOI1 and Fl-SlJAZP10. Type of assay: binding, Solanum lycopersicum. Conditions: calculated from AlphaScreen; 5 nM SlCOI1, 10 nM Fl-SlJAZP10. As to the method: as §1
The next assay has as its target SlCOI1-SlJAZ11. Kind of assay: AlphaScreen assay, GST-SlCOI1 and Fl-SlJAZP11. Format: binding, Solanum lycopersicum. The note with it: calculated from AlphaScreen; 5 nM SlCOI1, 10 nM Fl-SlJAZP11. The procedure: as §1
A further assay addresses T4, SlCOI1-SlJAZ13 (Solanum lycopersicum, UniProt A0A3Q7EQ67+Q6TDU2).
T4 sequence (Q6TDU2 1-603): T1 sequence (Q6TDU2 1-603)
T4 sequence (A0A3Q7EQ67 85-111): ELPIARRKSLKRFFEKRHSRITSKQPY
T4 sequence (Q39255 1-160 partner): T1 sequence (Q39255 1-160 partner)
Kind of assay: AlphaScreen assay, GST-SlCOI1 and Fl-SlJAZP13. Type of assay: binding. The note with it: calculated from AlphaScreen, 5 nM SlCOI1, 10 nM Fl-SlJAZP13. As to the method:
as §1

In assay [1] the target is GST-SlCOI1 and SlJAZP1-4DOD. As to the kind of experiment: AlphaScreen assay, GST-SlCOI1 and swapped SlJAZP1-4DOD. Type of assay: binding, Solanum lycopersicum. Conditions: swapped peptide: DOD sequence of SlJAZP1 swapped with that of SlJAZP4.
Description: To examine the effect of the DOD sequence, we studied SlJAZP1-4/13 which incorporate the same JAZ degron sequence LPIARR and alternative DOD sequence XSLX. […] We prepared SlJAZP1-3DOD and SlJAZP1-4DOD, wherein the DOD sequence of SlJAZP1 was swapped with those of SlJAZP3 and SlJAZP4, respectively (Fig. 4a, and Supplementary Figs. S11–12). […] Next, we examined whether the DOD sequence also affected the affinity of SlJAZP5/6/8 with another JAZ degron sequence VPQARK. […] We prepared DOD swapped peptides SlJAZP5-2DOD (ASLA of SlJAZ5 to NSLT of SlJAZ2) and SlJAZP2-5DOD (NSLT of SlJAZ2 to ASLA of SlJAZ5) (Fig. 4a, and Supplementary Figs. S11–12).
as §1, with “To clarify the difference in the affinity of the ligands with each COI1/JAZ co-receptor, the results of the AlphaScreen assay are shown with the normalized signal intensity change (Figs. 3, 4, and Supplementary Fig. S9) along with the raw signal intensity (Supplementary Figs. S8, S10, and S13)[40].” left out

Assay [2] concerns GST-SlCOI1 with FLAG-SlJAZ1-3/5–8. As to the kind of experiment: Pull down assay of GST-SlCOI1 with FLAG-SlJAZ (full-length proteins). Format: binding, Solanum lycopersicum. The note with it: ligand 100 nM; full-length FLAG-SlJAZ1-3/5–8; immunoblotting. The source says: (§2) SlJAZ genes were cloned from the tomato cultivar Micro-Tom and their FLAG-tag-fused proteins FLAG-SlJAZ1-11/13 expressed using the wheat germ-derived cell-free protein expression system (Supplementary Fig. S1). GST-fused SlCOI1 (GST-SlCOI1) was also expressed in Sf9 cultured insect cells (Supplementary Fig. S2). Arabidopsis ASK protein was co-expressed to improve the stability of SlCOI1[26].
(§3) Figure 2 (a) Pull down assay of GST-SlCOI1 with FLAG-SlJAZ (full-length proteins) in the presence of JA-Ile (100 nM). GST-SlCOI1 bound to FLAG-SlJAZ proteins was pulled down with anti-FLAG antibody and Protein G magnetic beads, and analyzed by immunoblotting (top: anti-GST-HRP conjugate for detection of GST-SlCOI1, bottom: anti-FLAG antibody and anti mouse-IgG HRP conjugate for detection of FLAG-SlJAZs). *or **show the bands derived from heavy chain or light chain of the anti-FLAG antibody. (b) Pull down assay of GST-SlCOI1 with Fl-SlJAZPs in the presence of JA-Ile (100 nM). GST-SlCOI1 bound to Fl-SlJAZPs was pulled down with anti-fluorescein antibody and Protein G magnetic beads, and analyzed by immunoblotting (anti-GST-HRP conjugate for detection of GST-SlCOI1).
(§4) All chemicals (JA-Ile or COR) were dissolved in ethanol to generate 10 mM stock solutions and diluted with 20% ethanol aq. for preparation of 100 μM stock solutions. For the pull-down experiments using full-length SlJAZ proteins, purified GST-COI1 (5 nM), FLAG-tagged SlJAZ (each 20 µL of the translation mixture), and the ligands (COR or JA-Ile) in 350 µL of incubation buffer (50 mM Tris–HCl buffer, pH 7.8, 100 mM NaCl, 20 mM 2-mercaptoethanol, 10% glycerol, 0.1% Tween20, 100 nM inositol-1,2,4,5,6-pentakisphosphate (IP5)) were combined with anti-FLAG antibody (0.2 µL, Sigma Aldrich, F1804, clone M2), and incubated for 10–15 h at 4 °C with rotation. After incubation, the samples were combined with SureBeads Protein G (10 µL in 50% incubation buffer slurry, Bio-Rad). After 3 h incubation at 4 °C with rotation, the samples were washed three times with 350 µL of fresh incubation buffer. The washed beads were resuspended in 35 µL of SDS-PAGE loading buffer containing dithiothreitol (DTT, 100 mM). After heating for 10 min at 60 °C, the samples were subjected to SDS-PAGE and analyzed by western blotting. The bound GST-COI1 protein was detected using anti-GST HRP conjugate (RPN1236, GE Healthcare, 5000-fold dilution in blocking buffer (Nakalai tesque, Inc., Japan). FLAG-JAZ proteins were detected using anti-FLAG antibody (1000-fold dilution in blocking buffer) and anti-mouse IgG-HRP antibody (Southern Biotech. Inc., Birmingham, US, 1031-05, 20,000-fold dilution in blocking buffer). Three independent replicates using proteins purified at different times were done with similar results (Supplementary Fig. S3).

For assay [3], the system named is GST-SlCOI1 with FLAG-SlJAZ4/13. Described as above. Format: binding, Solanum lycopersicum. The note with it: ligand 100 nM; full-length FLAG-SlJAZ4/13; immunoblotting.
Description: as §2, §3, §4
On the technique in general: A western blot detects proteins with antibodies after separation by electrophoresis.

Assay [4] relates to GST-SlCOI1 with FLAG-SlJAZ9-11. Described as above. Format: binding, Solanum lycopersicum. Conditions: ligand 100 nM; full-length FLAG-SlJAZ9-11; immunoblotting.
Description: as §2, §3, §4

Regarding `CC/C=C\C[C@@H]1C(=O)CC[C@@H]1CC(=O)N[C@H](C(=O)O)[C@@H](C)CC` [JA-Ile, (+)-7-iso-Jasmonoyl-L-isoleucine], the Kd (commonly the concentration at which binding is half-saturated) at SlCOI1-SlJAZ1 (read-out: Kd) is 9.2 nM; on SlCOI1-SlJAZ5 (read-out: Kd) it was 4.2 nM; at SlCOI1-SlJAZ6 it was 4.1 nM; at SlCOI1-SlJAZ7 (calculated from AlphaScreen, 5 nM SlCOI1, 10 nM Fl-SlJAZP7, read-out: Kd), 16.2 nM; at SlCOI1-SlJAZ8 it was 2.2 nM; on SlCOI1-SlJAZ9 it was 1110 nM. For the same molecule, the Kd was 402 nM on SlCOI1-SlJAZ10, 430 nM on SlCOI1-SlJAZ11, 637 nM on SlCOI1-SlJAZ13 (read-out: Kd) and 46.9 nM in assay [1]. Further, the “pull-down of GST-SlCOI1” value in [2] is “pulled-down GST-SlCOI1”; in assay [3], “could not pull-down the GST-SlCOI1”; in assay [4], “not FLAG-SlJAZ9-11 pulled-down GST-SlCOI1”.

Consider `CC[C@H]1C=C(C(=O)N[C@@]2(C(=O)O)C[C@@H]2CC)[C@H]2CCC(=O)[C@H]2C1` [COR, coronatine], for which the Kd on SlCOI1-SlJAZ1 was 4.9 nM; at SlCOI1-SlJAZ5, 0.64 nM; at SlCOI1-SlJAZ6 it was 0.76 nM; on SlCOI1-SlJAZ7, 0.23 nM; on SlCOI1-SlJAZ8 it was 0.39 nM; at SlCOI1-SlJAZ9 it was 44.7 nM. In addition, the Kd on SlCOI1-SlJAZ10 is 89.7 nM; at SlCOI1-SlJAZ11 it was 62.4 nM; at SlCOI1-SlJAZ13, 80.7 nM. The “pull-down of GST-SlCOI1” value in assay [2], in assay [3] and in assay [4] was “Identical results” throughout.
